Measured values reported in publication PMC10535741, “Styrylpyridinium Derivatives for Fluorescent Cell Imaging” (Pharmaceuticals, 2023).
Where “and” joins values, the source holds several entries; their conditions need not be identical. Equal entries are not always repeated. Where two headings read alike, the source gives them in different places.

Columns and labels:
[1] = system: MH-22A (mouse hepatocarcinoma); experiment: MTT cytotoxicity assay, MH-22A; type: cell-based; settings: for IC50: Mus musculus, read-out: IC50 (µg/mL) MH-22A
Experimental: The evaluation of the in vitro cytotoxicity (IC50, half maximal inhibitory concentration) of the abovementioned compounds and their structural derivatives was assessed using the standard colorimetric 3-(4,5-dimethylthiazol-2-yl)-2,5-diphenyltetrazolium bromide (MTT) assay on two monolayer tumour cell lines, namely HT-1080 (human connective tissue fibrosarcoma) and MH-22A (mouse hepatocarcinoma). Additionally, the impact of the compound on non-cancerous “normal” cells—mouse fibroblasts (NIH3T3)—was estimated in order to measure the basal toxicity (LD50, median lethal dose). The obtained results were used for investigation of the structure–activity relationships and exploration of the effect of substituents on cellular response and toxicity. The estimated LD50 gives information regarding the compound properties and could potentially be used to select promising compounds by providing a starting dose for in vivo experiments.
The HT-1080 (human connective tissue fibrosarcoma, ATCC® CCL-121™), MH-22A (mouse hepatocarcinoma, ECACC Cat. No. 96121721), A-549 (human lung carcinoma, ATCC® CCL-185™), NIH3T3 (Swiss Albino mouse embryo fibroblast, ECACC Cat. No. 93061524), Hek293 (human embryonic kidney, ATCC® CRL-1573™), BHK-21 (Syrian hamster kidney, ATCC® CCL-10™), A-431 (human epidermoid carcinoma, ATCC® CRL-1555™), Saos-2 (human osteosarcoma, ATCC® HTB-85™), HeLa (human epitheloid cervix carcinoma, ATCC® CCL-2™), U937 (human myeloid leukaemia, ATCC® CRL-1593.2™), C6 (rat glioma, ATCC® CCL-107™), and B16-F10 (murine melanoma, ATCC® CRL-6475™) cell lines were obtained from the American Type Culture Collection (ATCC) and European Collection of Authenticated Cell Cultures (ECACC).
HT-1080, MH-22A, A-549, NIH3T3, BHK-21, A-431, HeLa, and B16-F10 cells were cultured in Dulbecco’s Modified Eagle’s Medium (DMEM) with 2 mM glutamine and 10% foetal bovine serum (FBS). Hek293 cells were cultured in Eagle’s Minimum Essential Medium with 10% foetal bovine serum. U937 cells were cultured in RPMI-1640 Medium with 2 mM glutamine and 10% foetal bovine serum. C6 cells were cultured in Ham’s F12 Medium with 2 mM glutamine and 10% foetal bovine serum. Saos-2 cells were cultured in McCoy’s 5a Medium with 2 mM glutamine and 10% foetal bovine serum. The cells were incubated at 37 °C with 5% CO2, 95% air, and complete humidity. Once ~90% confluence was reached, they were detached using 0.05% trypsin/EDTA and counted. The cells were plated at optimally determined densities for the logarithmic phase of growth. These cells were then suspended at a concentration of 4000 cells/well for HT-1080, MH-22A, A-549, NIH3T3, BHK-21, A-431, HeLa, B16-F10, Hek293, and Saos-2 cells and a concentration of 9000 cells/well for U937, C6, Hek293, and GM08402 cells and added onto a 96-well plate. For background absorption, some wells remained cell free, i.e., as a blank control. Cells were incubated for 72 h at 37 °C and 5% CO2 where they were exposed to a media containing serial dilutions of the investigated compounds (n = 3). Cell viability was measured using the 3-(4,5-dimethylthiazol-2-yl)-2,5-diphenyl-tetrazolium bromide (MTT) assay. In brief, after incubating with compounds, the culture medium was removed and fresh medium with 0.2 mg/mL MTT was added to each well of the plate. After incubation (3 h, 37 °C, 5% CO2), the medium with MTT solution was removed and replaced with 200 µL DMSO and 25 µL Sorenson’s glycine buffer (glycine 0.1 M, NaCl 0.1 M, pH: 10.5 with 0.1 M NaOH). The plate was shaken for 15 min at room temperature and the optical density (OD) of the wells was determined using a multichannel spectrophotometer (Thermo Scientific Multiskan EX) at 540 nm. The quantity of the control cells was taken in calculations as 100%. The IC50 value was calculated using the program Graph Pad Prism® 3.0.

[2] = Excitation/emission fluorescence spectra; type: physicochemical; settings: for Stokes' shift, nm: DMSO; for fluor. max. λ, nm / excitation λ, nm: DMSO solution; for excitation λ, nm: excitation giving maximum fluorescence intensity
Experimental: The resonance structures of compounds 6d,e (Figure 2a) show a possibly intramolecular charge transfer between the julolidine moiety and the pyridinium unit. The normalised fluorescence spectra of the tested compounds 6a–e and 7a,b in DMSO solution (Figure 2c) and the fluorescence spectra of compound 6e in various media (Figure 2d) were measured using a spectrophotometer multiplate reader (Infinite M1000). The UV/Vis spectra in DMSO solution of compounds 6a–g (Figure 2b) were reordered with a UV/Vis spectrophotometer, and the fluorescence spectra of compound 6e in EtOH–glycerol mixtures (Figure 2e) were collected with a Spectrofluorometer FS5.
According to the calculations, the excitation occurs at 542 nm and the emission at 765 nm. The obtained theoretical calculation data are in good agreement with the experimental data, where the excitation occurs at 530 nm and the emission at 760 nm (Table 3).
We have also tested whether the characteristics of compound 6e depended upon the viscosity of its surrounding environment. […] It was underlined that water media reduced the fluorescence quantum yields and the lifetime of organic fluorophores by up to threefold. […] In pure glycerol, the maximum value of fluorescence was detected at 645 nm. As the amount of glycerol decreased, the fluorescence intensity of the sample decreased as well. The second fluorescence maximum at 720 nm was observed when the amount of ethanol had reached approximately 50% in the composition.
A concentration of 10 mM stock solution of compounds 6 or 7 was prepared by dissolving the compounds in DMSO. Working solutions were prepared by diluting the 10 mM stock solution of compounds with different solvents to reach the final concentration for the samples: DMSO (compound concentration 0.1 mM); for compound 6e: in glycerol (concentration 0.01 mM), in water (concentration 0.5 mM), in 0.1 M HCl (concentration 0.5 mM), in 0.1 M NaOH (concentration 0.5 mM), or in 1% DMSO/99% water (concentration […]). The fluorescence spectra were measured using a spectrophotometer multiplate reader (Tecan Infinite M1000; Tecan Austria GmbH, Salzburg, Austria). For excitation/emission fluorescence spectra measurements, the following measurement parameters were applied: excitation wavelength from 260 nm to 690 nm with a 10 nm sampling interval and emission wavelength from 300 nm to 840 nm with a 10 nm sampling interval. The fluorescence spectra of compound 6e (concentration 5 mM) in EtOH–glycerol mixtures were measured with an Edinburgh Instruments FS5 Spectrofluorometer (Edinburgh Instruments Ltd., Kirkton Campus, UK). The data were analysed using Microsoft Excel software version 2308.

For `CCCCCCCCCCCCCCCC[n+]1ccc(C=CC=Cc2cc3c4c(c2)CCCN4CCC3)cc1.[Br-]` [Compound 6e, 1-hexadecyl-4-(4-(2,3,6,7-tetrahydro-1H,5H-pyrido[3,2,1-ij]quinolin-9-yl)buta-1,3-dien-1-yl)pyridin-1-ium bromide], the IC50 ([1]; 72 h treatment, MTT) was 0.4 ± 0.06 µg/mL, the “times more toxic to MH-22A than against non-cancerous Hek-293” value ([1]; selectivity MH-22A versus Hek-293) was 3.75 times and the “times more cytotoxic to MH-22A than against non-cancerous NIH3T3” value ([1]; selectivity MH-22A versus NIH3T3) was “eight”. For the same molecule, the “Stokes' shift, nm” value [2] was 240 nm, the “fluor. max. λ, nm” value [2] was 760 nm and ~ 760 nm and the “excitation λ, nm” value [2] was 530 nm. For the same molecule, the second fluorescence maximum ([2]; EtOH-glycerol mixture, ethanol approximately 50%) was 720 nm and the “fluorescence emission maximum wavelength” value ([2]; pure glycerol) was 645 nm.

For `CCCCCCCCCCCC[n+]1ccc(C=Cc2cc3c4c(c2)CCCN4CCC3)cc1.[Br-]` [Compound 6d, 1-dodecyl-4-(2-(2,3,6,7-tetrahydro-1H,5H-pyrido[3,2,1-ij]quinolin-9-yl)vinyl)pyridin-1-ium bromide], the “times higher cytotoxicity towards MH-22A than compound 7a” value ([1]; 6d versus 7a) was 80 times, the IC50 ([1]; 72 h treatment, MTT) was 0.05 ± 0.003 µg/mL and the “fluor. max. λ, nm” value [2] was 660 nm. For the same molecule, the “excitation λ, nm” value [2] was 530 nm.

With `CCCCCCCCCCCCCCCC[n+]1ccc(C=Cc2cc(OC)c(OC)c(OC)c2)cc1.[Br-]` [Compound 6b] the “IC50 (µg/mL) MH-22A” value ([1]; 72 h treatment, MTT) was 1.08 ± 0.06 µg/mL, the “fluor. max. λ, nm” value [2] was 580 nm and the “excitation λ, nm” value [2] was 380 nm.

With `CCCCCCCCCCCCCCCC[n+]1ccc(C=CC=Cc2ccc(OC)cc2)cc1.[Br-]` [Compound 6c, 1-hexadecyl-4-(4-(4-methoxyphenyl)buta-1,3-dien-1-yl)pyridin-1-ium bromide] the IC50 ([1]; 72 h treatment, MTT) was 0.13 ± 0.03 µg/mL, the “Stokes' shift, nm” value [2] was 352 nm and the “fluor. max. λ, nm” value [2] was 760 nm and ~ 760 nm. For the same molecule, the “excitation λ, nm” value [2] was 530 nm.

For `C(C=Cc1cc2c3c(c1)CCCN3CCC2)=Cc1cc[n+](CCC[n+]2ccc(C=CC=Cc3cc4c5c(c3)CCCN5CCC4)cc2)cc1.[Br-].[Br-]` [Compound 7b, 1,1′-(propane-1,3-diyl)bis(4-(4-(2,3,6,7-tetrahydro-1H,5H-pyrido[3,2,1-ij]quinolin-9-yl)buta-1,3-dien-1-yl)pyridin-1-ium) dibromide], the IC50 ([1]; 72 h treatment, MTT) was 5 ± 0.6 µg/mL, the “fluor. max. λ, nm” value [2] was 770 nm and ~ 760 nm and the “excitation λ, nm” value [2] was 530 nm.

In the case of `CCCCCCCCCCCC[n+]1ccc(C=Cc2cc(OC)c(OC)c(OC)c2)cc1.[Br-]` [Compound 6a, 4-(3,4,5-trimethoxystyryl)-N-dodecylpyridinium bromide], the “times more toxic than 6b in MH-22A” value ([1]; 6a versus 6b) is reported as 2.4 times, the IC50 ([1]; 72 h treatment, MTT) is reported as 0.45 ± 0.08 µg/mL and the “times lower cytotoxicity of 6a compared with 6d, MH-22A” value ([1]; ratio of IC50 values) is reported as 8.5 times. The “fluor. max. λ, nm” value [2] was 580 nm and the “excitation λ, nm” value [2] was 380 nm.

With `C(=C\c1cc2c3c(c1)CCCN3CCC2)/c1cc[n+](CCC[n+]2ccc(/C=C/c3cc4c5c(c3)CCCN5CCC4)cc2)cc1` [Compound 7a] the IC50 ([1]; 72 h) was 4 ± 0.3 µg/mL, the “fluor. max. λ, nm” value [2] was 660 nm and the “excitation λ, nm” value [2] was 530 nm.
